Source: US8153596B2, “Use of SH2 STAT3/STAT1 peptidomimetics as anticancer drugs” (University of South Florida, priority 2006, dated 2012)
pIC50: −log10 of the molar value. Several values for one entry are separate records, joined by “and”; a condition that tells them apart may be missing. Equal entries are not always repeated. Where two headings read alike, the source gives them in different places.

How the values were obtained:
[1] = test system: v-Src transformed fibroblasts; conditions: constitutively active STAT3-dependant v-Src transformed fibroblasts; cited from earlier work
STAT1:STAT1 = molecular target: T1, STAT1:STAT1 (Homo sapiens, UniProt P42224); experiment: EMSA of STAT1:STAT1 dimer DNA binding, nuclear extracts preincubated with peptidomimetic, radiolabeled hSIE probe; assay type: biochemical
T1 construct: Nuclear extracts containing active STAT1 and STAT3 were preincubated with or without peptidomimetics; endogenous in cells; host or cells: nuclear extracts
T1 sequence (P42224 2-750 limits assumed): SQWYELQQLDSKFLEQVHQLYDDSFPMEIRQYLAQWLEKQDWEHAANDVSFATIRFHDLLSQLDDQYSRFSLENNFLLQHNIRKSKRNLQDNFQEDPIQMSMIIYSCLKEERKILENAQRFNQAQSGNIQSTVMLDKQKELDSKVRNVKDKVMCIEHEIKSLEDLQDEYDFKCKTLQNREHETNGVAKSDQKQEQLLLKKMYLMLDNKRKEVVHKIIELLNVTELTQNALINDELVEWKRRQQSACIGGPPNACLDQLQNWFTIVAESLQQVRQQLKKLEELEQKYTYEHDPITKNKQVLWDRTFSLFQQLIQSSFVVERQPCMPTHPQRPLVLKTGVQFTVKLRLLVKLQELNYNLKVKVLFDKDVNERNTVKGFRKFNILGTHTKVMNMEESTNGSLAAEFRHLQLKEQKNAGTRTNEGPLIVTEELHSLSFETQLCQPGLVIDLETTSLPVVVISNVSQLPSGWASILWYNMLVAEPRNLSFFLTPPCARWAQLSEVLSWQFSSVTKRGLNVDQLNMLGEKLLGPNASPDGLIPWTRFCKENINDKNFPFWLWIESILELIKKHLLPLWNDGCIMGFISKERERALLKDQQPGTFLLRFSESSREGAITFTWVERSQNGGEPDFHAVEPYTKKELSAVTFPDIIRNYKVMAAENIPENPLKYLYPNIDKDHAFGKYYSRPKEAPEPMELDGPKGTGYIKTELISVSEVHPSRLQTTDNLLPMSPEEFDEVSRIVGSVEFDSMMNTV
Description: (§1) Evaluation was carried out through pre-incubation of specific concentrations of peptidomimetics with nuclear extracts containing STAT1 and STAT3 for 30 minutes at room temperature before incubation with radiolabeled hSIE oligonucleotide probes and ESMA analysis. Standard peptide synthetic procedures using HBTU and DIPEA were employed to furnish the library of functionalized inhibitors.
as §1

STAT3:STAT3 = molecular target: T2, STAT3:STAT3 (Homo sapiens, UniProt P40763); experiment: EMSA of STAT3:STAT3 dimer DNA binding, nuclear extracts preincubated with peptidomimetic, radiolabeled hSIE probe; assay type: biochemical
T2 construct: Nuclear extracts containing active STAT1 and STAT3 were preincubated with or without peptidomimetics; endogenous in cells; host or cells: nuclear extracts
Description: as §1, §1

T2 sequence (P40763 2-770 limits assumed, species assumed): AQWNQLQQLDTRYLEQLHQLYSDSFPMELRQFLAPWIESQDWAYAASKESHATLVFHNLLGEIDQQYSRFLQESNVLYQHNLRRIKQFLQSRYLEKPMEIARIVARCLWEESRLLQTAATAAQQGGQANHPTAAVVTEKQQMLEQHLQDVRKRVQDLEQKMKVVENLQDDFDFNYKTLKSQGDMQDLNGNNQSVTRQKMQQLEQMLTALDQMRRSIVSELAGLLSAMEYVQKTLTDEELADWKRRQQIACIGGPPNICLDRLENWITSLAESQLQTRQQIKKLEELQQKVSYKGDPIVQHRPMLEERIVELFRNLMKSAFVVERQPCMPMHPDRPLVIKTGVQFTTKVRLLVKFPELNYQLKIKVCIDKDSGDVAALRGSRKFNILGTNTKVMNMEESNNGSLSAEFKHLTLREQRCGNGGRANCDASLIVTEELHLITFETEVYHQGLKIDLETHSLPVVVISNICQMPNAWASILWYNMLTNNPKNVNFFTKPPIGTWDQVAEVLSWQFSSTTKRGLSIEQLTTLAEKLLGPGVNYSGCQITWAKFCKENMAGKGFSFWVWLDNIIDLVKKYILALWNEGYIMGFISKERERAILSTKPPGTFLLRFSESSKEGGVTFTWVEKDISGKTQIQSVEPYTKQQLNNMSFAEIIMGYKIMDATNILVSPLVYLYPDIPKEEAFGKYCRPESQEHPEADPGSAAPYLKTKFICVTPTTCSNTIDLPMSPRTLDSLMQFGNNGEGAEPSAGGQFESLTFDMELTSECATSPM

Row | pIC50 (STAT1:STAT1; nuclear extracts preincubated 30 min at room temperature, hSIE probe, EMSA, means of three experiments, read-out: STAT1:STAT1 IC50 values) | pIC50 (STAT3:STAT3; nuclear extracts preincubated 30 min at room temperature, hSIE probe, EMSA, means of three experiments, read-out: STAT3:STAT3 IC50 values) | SMILES | cell growth suppression [1] | pIC50 (STAT1:STAT1) | pIC50 (STAT3:STAT3)
1 | – | – | CC(C)CC(NC(=O)C(Cc1ccc(OP(=O)(O)O)cc1)NC(=O)c1ccc(C#N)cc1)C(=O)O (stereo not shown) [ISS610] | suppress cell growth significantly | – | –
2 | – | – | CC(C)CC(NC(=O)C(Cc1ccc(OP(=O)(O)O)cc1)NC(=O)c1ccc(C#N)cc1)C(=O)NC(C)C (stereo not shown) [ISS834] | – | 4.68 | 3.12
3 | – | – | CC(C)CC(NC(=O)C(Cc1ccc(OP(=O)(O)O)cc1)NC(=O)c1ccc(C#N)cc1)C(=O)NC1CCCCC1 (stereo not shown) [ISS836] | – | 4.60 | 3.22
4 | 5.85 and 6.00 | 3.25 | COc1cccc(NC(=O)[C@H](CC(C)C)NC(=O)[C@H](Cc2ccc(OP(=O)(O)O)cc2)NC(=O)c2ccc(C#N)cc2)c1 [ISS840] | – | – | –
